Test results published in ChEMBL document CHEMBL1142033, “Synthesis of isonicotinic acid N'-arylidene-N-[2-oxo-2-(4-aryl-piperazin-1-yl)-ethyl]-hydrazides as antituberculosis agents” (2005).
Converted amounts (≈) assume the structure as drawn.

Columns and labels:
[1] = tested on: Mycobacterium tuberculosis; assay: Minimum inhibitory concentration against Mycobacterium tuberculosis H37Rv ATCC 27294; type: functional
[2] = tested on: Mycobacterium tuberculosis; assay: Minimum inhibitory concentration against sensitive Mycobacterium tuberculosis clinical isolates; N=9; type: functional
[3] = tested on: Mycobacterium tuberculosis; assay: Minimum inhibitory concentration against sensitive Mycobacterium tuberculosis clinical isolates; N=9; range=8-16; type: functional
[4] = tested on: Mycobacterium tuberculosis; assay: Minimum inhibitory concentration against sensitive Mycobacterium tuberculosis clinical isolates; N=9; range=2-4; type: functional
[5] = tested on: Mycobacterium tuberculosis; assay: Minimum inhibitory concentration against sensitive Mycobacterium tuberculosis clinical isolates; N=9; range=4-8; type: functional
[6] = tested on: Mycobacterium tuberculosis; assay: Minimum inhibitory concentration against sensitive Mycobacterium tuberculosis clinical isolates; N=9; range=1-4; type: functional
[7] = tested on: Mycobacterium tuberculosis; assay: Minimum inhibitory concentration against sensitive Mycobacterium tuberculosis clinical isolates; N=9; Range = 0.12-0.25; type: functional
[8] = tested on: Mycobacterium tuberculosis; assay: microbe, parasite or virus in culture
Description: Minimum inhibitory concentration against sensitive Mycobacterium tuberculosis clinical isolates; N=9; Range=0.03-0.5

Row | SMILES | MIC [1] [µg/mL] | MIC [2] [µg/mL] | also measured
1 | O=C(CN(/N=C/c1ccccc1Cl)C(=O)c1ccncc1)N1CCN(c2ccc(F)cc2)CC1 | > 16 | > 16 | 
2 | O=C(CN(/N=C/c1cccc(Cl)c1)C(=O)c1ccncc1)N1CCN(c2ccc([N+](=O)[O-])cc2)CC1 | > 16 | > 16 | 
3 | O=C(CN(/N=C/c1ccc(Cl)cc1Cl)C(=O)c1ccncc1)N1CCN(c2ccc(Cl)cc2)CC1 | 8 (≈ 15.1 µM) | 8 (≈ 15.1 µM) | 
4 | O=C(CN(/N=C/c1ccc(Cl)cc1Cl)C(=O)c1ccncc1)N1CCN(c2ccc(F)cc2)CC1 | > 16 |  | MIC [3]: 16 µg/mL (≈ 31.1 µM)
5 | O=C(CN(/N=C/c1cccc(Cl)c1)C(=O)c1ccncc1)N1CCN(c2ccc(Cl)cc2)CC1 | > 16 | > 16 | 
6 | COc1ccccc1N1CCN(C(=O)CN(/N=C/c2ccc(Cl)cc2)C(=O)c2ccncc2)CC1 | > 16 | > 16 | 
7 | COc1ccccc1N1CCN(C(=O)CN(/N=C/c2ccccc2Cl)C(=O)c2ccncc2)CC1 | > 16 | > 16 | 
8 | O=C(CN(/N=C/c1ccc(Cl)cc1)C(=O)c1ccncc1)N1CCN(c2ccc(Cl)cc2)CC1 | > 16 | > 16 | 
9 | O=C(CN(/N=C/c1ccc(Cl)cc1Cl)C(=O)c1ccncc1)N1CCN(c2cccc(C(F)(F)F)c2)CC1 | > 16 | > 16 | 
10 | O=C(CN(/N=C/c1ccccc1Cl)C(=O)c1ccncc1)N1CCN(c2ccccc2)CC1 | > 16 |  | MIC [3]: 16 µg/mL (≈ 34.6 µM)
11 | O=C(CN(/N=C/c1ccccc1Cl)C(=O)c1ccncc1)N1CCN(c2ccc([N+](=O)[O-])cc2)CC1 | > 16 | > 16 | 
12 | Cc1cccc(N2CCN(C(=O)CN(/N=C/c3ccc(Cl)cc3Cl)C(=O)c3ccncc3)CC2)c1 | > 16 | > 16 | 
13 | O=C(CN(/N=C/c1ccccc1Cl)C(=O)c1ccncc1)N1CCN(c2cccc(Cl)c2)CC1 | > 16 | > 16 | 
14 | Cc1cccc(N2CCN(C(=O)CN(/N=C/c3ccccc3Cl)C(=O)c3ccncc3)CC2)c1 | > 16 | > 16 | 
15 | O=C(CN(/N=C/c1ccc(Cl)cc1)C(=O)c1ccncc1)N1CCN(c2ccc(F)cc2)CC1 | > 16 | > 16 | 
16 | COc1ccccc1N1CCN(C(=O)CN(/N=C/c2cccc(Cl)c2)C(=O)c2ccncc2)CC1 | > 16 | > 16 | 
17 | O=C(CN(/N=C/c1ccccc1Cl)C(=O)c1ccncc1)N1CCN(c2cccc(C(F)(F)F)c2)CC1 | > 16 | > 16 | 

Row | SMILES | MIC [1] [µg/mL] | MIC [2] [µg/mL] | also measured
18 | O=C(CN(/N=C/c1ccc(Cl)cc1Cl)C(=O)c1ccncc1)N1CCN(c2cccc(Cl)c2)CC1 | > 16 | > 16 | 
19 | O=C(CN(/N=C/c1cccc(Cl)c1)C(=O)c1ccncc1)N1CCN(c2ccc(F)cc2)CC1 | > 16 | > 16 | 
20 | O=C(CN(/N=C/c1cccc(Cl)c1)C(=O)c1ccncc1)N1CCN(c2cccc(Cl)c2)CC1 | > 16 | > 16 | 
21 | O=C(CN(/N=C/c1ccc(Cl)cc1)C(=O)c1ccncc1)N1CCN(c2ccc([N+](=O)[O-])cc2)CC1 | > 16 | > 16 | 
22 | COc1ccccc1N1CCN(C(=O)CN(/N=C/c2ccc(Cl)cc2Cl)C(=O)c2ccncc2)CC1 | > 16 | > 16 | 
23 | O=C(CN(/N=C/c1ccccc1Cl)C(=O)c1ccncc1)N1CCN(c2ccc(Cl)cc2)CC1 | > 16 | > 16 | 
24 | O=C(CN(/N=C/c1ccc(Cl)cc1Cl)C(=O)c1ccncc1)N1CCN(Cc2ccc3c(c2)OCO3)CC1 |  | 0.5 (≈ 0.902 µM) | Range of MIC [1]: 1 µg/mL
25 | O=C(CN(/N=C/c1ccc(Cl)cc1Cl)C(=O)c1ccncc1)N1CCN(c2ccc([N+](=O)[O-])cc2)CC1 | > 16 | > 16 | 
26 | O=C(CN(/N=C/c1cccc(Cl)c1)C(=O)c1ccncc1)N1CCN(Cc2ccc3c(c2)OCO3)CC1 | 4 (≈ 7.69 µM) |  | MIC [4]: 4 µg/mL (≈ 7.69 µM)
27 | O=C(CN(/N=C/c1ccc(Cl)cc1Cl)C(=O)c1ccncc1)N1CCN(c2ccccc2)CC1 | > 16 | > 16 | 
28 | O=C(CN(/N=C/c1ccccc1Cl)C(=O)c1ccncc1)N1CCN(Cc2ccc3c(c2)OCO3)CC1 | 4 (≈ 7.69 µM) |  | MIC [5]: 8 µg/mL (≈ 15.4 µM)
29 | Cc1cccc(N2CCN(C(=O)CN(/N=C/c3cccc(Cl)c3)C(=O)c3ccncc3)CC2)c1 | > 16 | > 16 | 
30 | O=C(CN(/N=C/c1ccc(Cl)cc1)C(=O)c1ccncc1)N1CCN(Cc2ccc3c(c2)OCO3)CC1 | 2 (≈ 3.85 µM) |  | MIC [6]: 4 µg/mL (≈ 7.69 µM)
31 | O=C(CN(/N=C/c1ccccc1Cl)C(=O)c1ccncc1)N1CCN(c2cccc(Cl)c2Cl)CC1 | > 16 | > 16 | 
32 | O=C(CN(/N=C/c1cccc(Cl)c1)C(=O)c1ccncc1)N1CCN(c2ccccc2)CC1 | > 16 | > 16 | 
33 | NNC(=O)c1ccncc1 [ISONIAZID] | 0.25 (≈ 1.82 µM) |  | MIC [7]: 0.25 µg/mL (≈ 1.82 µM)
34 | CO[C@H]1/C=C/O[C@@]2(C)Oc3c(C)c(O)c4c(O)c(c(/C=N/N5CCN(C)CC5)c(O)c4c3C2=O)NC(=O)/C(C)=C\C=C\[C@H](C)[C@H](O)[C@@H](C)[C@@H](O)[C@@H](C)[C@H](OC(C)=O)[C@@H]1C [RIFAMPIN] | 0.125 (≈ 0.152 µM) |  | MIC [8]: 0.5 µg/mL (≈ 0.608 µM)
